In patent US9873702B2, “Heterocyclic compounds as biogenic amine transport modulators” (Southern Research Institute, priority 2014, dated 2018):
Where two headings read alike, the source gives them in different places.

Legend:
[1] = target: T1, dopamine transporter (DAT) (Rattus norvegicus, UniProt P23977); test: Dopamine reuptake ([^3H]dopamine uptake) inhibition in rat brain synaptosomes
Method: Freshly removed caudate was homogenized in 10% ice-cold sucrose with 12 strokes of a hand-held Potter-Elvehj em homogenizer followed by centrifugation at 1000×g for 10 min. The supernatants were saved on ice and used immediately. Transporter activity was assessed using 5 nM [^3H]dopamine. […] The selectivity of the uptake assay for dopamine active transporter (DAT) was optimized by including 100 nM citalopram and 100 nM desipramine as blockers of serotonin transporter (SERT) and norepinephrine transporter (NET) in the sucrose solution and assay buffer. Uptake inhibition assays were conducted at 25° C. and were initiated by adding 100 μl of tissue to 900 μL assay buffer containing test drug and [^3H]dopamine. Test drugs were diluted in assay buffer containing 1 mg/mL bovine serum albumin. Nonspecific uptake was measured by incubating in the presence of 10 μM indatraline. The reactions were stopped after 15 minutes by rapid vacuum filtration with a cell harvester (BRANDEL) over GF/B filters (Whatman) presoaked in wash buffer maintained at 25° C. (10 mM Tris-HCl, pH 7.4/150 mM NaCl). Filters were rinsed with 6 mL wash buffer and retained tritium was quantified by a MicroBeta liquid scintillation counter (PerkinElmer) after overnight extraction in 0.6 mL of liquid scintillation cocktail (Cytoscint, ICN). The data from three experiments were pooled and fit to a dose-response curve equation (using Kaleidagraph), to yield an Emax and EC50 value.
(§1) The data from three experiments were pooled and fit to a dose-response curve equation (using KaleidaGraph; Synergy Software, Reading, Pa.) to yield an Emax and IC50 value.

[2] = target: norepinephrine transporter (NET) (Rattus norvegicus, UniProt Q9WTR4); test: Norepinephrine reuptake ([^3H]norepinephrine uptake) inhibition in rat brain synaptosomes; settings: for NE Uptake Emax (% I ± SD): maximal inhibition from dose-response fit
Method: Freshly removed whole brain minus cerebellum and caudate was homogenized in 10% ice-cold sucrose with 12 strokes of a hand-held Potter-Elvehjem homogenizer followed by centrifugation at 1000×g for 10 minutes. The supernatants were saved on ice and used immediately. Transporter activity at NET was assessed using 10 nM [^3H]norepinephrine. […] Uptake inhibition assays were conducted at 37° C. and were initiated by adding 100 μL of tissue to 900 μL assay buffer containing test drug and [^3H]norepinephrine. Test drugs were diluted in assay buffer containing 1 mg/mL bovine serum albumin. Nonspecific uptake was measured by incubating in the presence of 10 μM indatraline. The reactions were stopped after 10 minutes by rapid vacuum filtration with a cell harvester (BRANDEL) over GF/B filters (Whatman) presoaked in wash buffer maintained at 25° C. (10 mM Tris-HCl, pH 7.4/150 mM NaCl). Filters were rinsed with 6 mL wash buffer and retained tritium was quantified by a MicroBeta liquid scintillation counter (PerkinElmer) after overnight extraction in 0.6 mL of liquid scintillation cocktail (Cytoscint, ICN). The data from three experiments were pooled and fit to a dose-response curve equation (using Kaleidagraph), to yield an Emax and EC50 value.
as §1

[3] = target: T1, dopamine transporter (DAT); test: Time course of [^3H]DA uptake/accumulation; type: biochemical; set-up: Freshly removed caudate was homogenized in 10% ice-cold sucrose; from tissue; host or cells: rat caudate synaptosomes
[4] = target: T2, serotonin transporter (SERT) (Rattus norvegicus, UniProt P31652); test: Serotonin reuptake ([^3H]serotonin uptake) inhibition in rat brain synaptosomes; type: biochemical; settings: for Emax / IC50: mean ± S.D., n = 3; for Emax: read-out: SERT Uptake Emax; for IC50: read-out: SERT Uptake IC50
T2 construct: Freshly removed whole brain minus cerebellum and caudate was homogenized; from tissue; host or cells: rat whole brain minus cerebellum and caudate, synaptosomes
T2 sequence (P31652 whole entry): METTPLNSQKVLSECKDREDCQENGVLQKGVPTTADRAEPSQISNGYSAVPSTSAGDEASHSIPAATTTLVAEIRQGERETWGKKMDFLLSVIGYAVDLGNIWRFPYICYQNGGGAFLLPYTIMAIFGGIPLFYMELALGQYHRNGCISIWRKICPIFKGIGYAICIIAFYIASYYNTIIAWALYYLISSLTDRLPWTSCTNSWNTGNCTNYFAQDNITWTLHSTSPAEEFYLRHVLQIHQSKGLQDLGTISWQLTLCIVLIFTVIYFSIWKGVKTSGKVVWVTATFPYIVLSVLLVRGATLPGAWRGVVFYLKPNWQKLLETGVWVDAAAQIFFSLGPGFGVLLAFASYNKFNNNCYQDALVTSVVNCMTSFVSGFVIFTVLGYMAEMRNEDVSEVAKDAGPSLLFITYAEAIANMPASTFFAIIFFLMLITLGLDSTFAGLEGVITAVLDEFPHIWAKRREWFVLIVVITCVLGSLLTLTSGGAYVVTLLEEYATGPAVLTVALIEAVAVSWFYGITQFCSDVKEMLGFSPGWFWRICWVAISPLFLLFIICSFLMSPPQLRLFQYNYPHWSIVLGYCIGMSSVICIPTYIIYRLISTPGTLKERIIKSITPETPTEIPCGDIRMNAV

[5] = target: T1, dopamine transporter (DAT); test: Dopamine transporter-mediated [^3H]MPP^+ release, shift of D-amphetamine-induced release, rat caudate synaptosomes; type: biochemical; set-up: Freshly removed caudate was homogenized in 10% ice-cold sucrose; from tissue; host or cells: rat caudate synaptosomes; settings: for Apparent Kc: [3H]MPP+ release, Apparent Kc = [Blocker]/((EC50-2/EC50-1) − 1), negative when shifted EC50 is less than control
[6] = target: T1, dopamine transporter (DAT); test: d-Amphetamine-induced DAT-mediated [^3H]DA release; type: biochemical; set-up: Freshly removed caudate was homogenized in 10% ice-cold sucrose; from tissue; host or cells: rat caudate synaptosomes; settings: Apparent Kc = [Blocker]/((EC50-2/EC50-1) − 1), negative when shifted EC50 is less than control
DAT = target: T3, DAT (Rattus norvegicus, UniProt P23977); test: Dopamine transporter binding, inhibition of [^3H]WIN35428 binding in rat caudate membranes; settings: for DAT Binding εmax: inhibition of [3H]WIN35428 binding, mean ± S.D., n = 3
T3 construct: from tissue; host or cells: rat caudate membranes
T3 sequence (P23977 whole entry): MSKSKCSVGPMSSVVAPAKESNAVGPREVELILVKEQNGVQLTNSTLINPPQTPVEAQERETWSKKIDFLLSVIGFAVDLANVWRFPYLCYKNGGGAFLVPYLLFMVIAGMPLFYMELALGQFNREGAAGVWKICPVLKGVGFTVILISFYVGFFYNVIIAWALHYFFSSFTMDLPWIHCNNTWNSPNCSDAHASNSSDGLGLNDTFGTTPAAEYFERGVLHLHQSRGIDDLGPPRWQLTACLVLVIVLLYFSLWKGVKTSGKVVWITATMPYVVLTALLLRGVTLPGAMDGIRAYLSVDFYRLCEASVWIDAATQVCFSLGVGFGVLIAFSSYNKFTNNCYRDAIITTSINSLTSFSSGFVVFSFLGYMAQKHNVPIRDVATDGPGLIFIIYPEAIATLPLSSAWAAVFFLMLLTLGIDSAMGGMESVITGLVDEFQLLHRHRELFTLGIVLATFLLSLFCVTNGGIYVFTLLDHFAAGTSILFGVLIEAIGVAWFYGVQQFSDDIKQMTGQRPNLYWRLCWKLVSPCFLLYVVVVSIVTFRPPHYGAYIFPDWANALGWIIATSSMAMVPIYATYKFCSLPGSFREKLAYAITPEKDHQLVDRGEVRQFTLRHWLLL
Method: The ability of test drugs to inhibit [^3H]WIN35428 binding to DAT in rat caudate membranes was assessed as follows. For each experiment, caudates from four rat brains were suspended in 15 mL ice cold assay buffer (50 mM sodium phosphate pH 7.4) and homogenized using a polytron (setting 6, 20 sec). The homogenate was centrifuged at 30,000×g for 10 minutes at 4° C. The pellet was resuspended with vigorous vortexing in 15 mL fresh ice cold assay buffer, and the centrifugation was repeated. The pellet was resuspended in 15 mL fresh ice cold assay buffer with vigorous vortexing followed by six strokes with a glass-on-glass hand-held homogenizer and was diluted to a final volume of 235 mL in ice cold assay buffer. [^3H]WIN35428 was diluted to 10 nM in assay buffer that contained 25 μg/mL chymostatin, 25 μg/mL leupeptin, 0.1 mM EDTA, and 0.1 mM EGTA. Each assay tube contained 0.75 mL membrane preparation, 0.15 mL test drug diluted in assay buffer containing 1 mg/mL bovine serum albumin, and 0.1 mL [^3H]WIN35428 preparation (final concentration of 1 nM). Assays were initiated by the addition of membranes and were terminated after 2 hours at 25° C. by rapid vacuum filtration. Retained tritium was measured as described. The data from three experiments were pooled and fit to a dose-response curve equation (using Kaleidagraph), to yield an Emax and EC50 value.

[7] = IC50 for DAT Uptake Inhibition, rounded value as listed in Table 10
[8] = read-out: Emax for DAT Uptake Inhibition
[9] = rat brain synaptosomes, 10 nM [^3H]norepinephrine
[10] = read-out: NE Uptake EC50 (nM ± SD), rat brain synaptosomes, 10 nM [^3H]norepinephrine, 10 min, 37° C.
[11] = read-out: NET Uptake IC50, mean ± S.D., n = 3
[12] = DAT Uptake IC50, [3H]DA uptake inhibition, mean ± S.D., n = 3

T1 sequence (P23977 whole entry): as above

SMILES | IC50 [1, 7] | Emax ([1]; read-out: DAT Uptake Emax) | Emax [1, 8] | NET Uptake Emax ([2]; mean ± S.D., n = 3) | NE Uptake Emax (% I ± SD) [2, 9] | IC50 [2, 10] | IC50 [2, 11] | Emax [4] | IC50 [4] | Apparent Kc [5] | DAT Binding εmax (DAT) | IC50 [1, 12] | further results
c1ccc(C(CNc2nc(-c3ccc4nccn4c3)nc3ccccc23)c2ccccc2)cc1 [compound 55, N-(2,2-Diphenylethyl)-2-(Imidazo[1,2-a]Pyridin-6-yl)Quinazolin-4-Amine] | 2 nM | 68 ± 2% | 68% | 72 ± 4% | 72 ± 4 % I | 52 ± 15 nM | 52 ± 15 nM | 52 ± 2% | 23 ± 5 nM | -368 nM | Inactive | – | IC50 ([1]; IC50 for inhibition of DAT uptake, [^3H]DA uptake, text of b784): 2.3 ± 0.4 nM; efficacy of [^3H]DA (DAT) uptake inhibition, in words ([1]; partial versus full inhibition): partial inhibitor; Emax for DAT Uptake Inhibition ([1]; value as listed in Table 10): 68%; efficacy of NET uptake inhibition, in words ([2]; partial versus full inhibition): partial inhibitor; Emax at 0.001 µM ([3]; [^3H]DA accumulation, 1 nM compound 55, read-out: Inhibition of the Emax value (%)): 11%; Emax at 0.004 µM ([3]; [^3H]DA accumulation, 4 nM compound 55, read-out: Inhibition of the Emax value (%)): 29%; Emax at 0.008 µM ([3]; [^3H]DA accumulation, 8 nM compound 55, read-out: Inhibition of the Emax value (%)): 42%; Emax at 0.025 µM ([3]; [^3H]DA accumulation, 25 nM compound 55, read-out: Inhibition of the Emax value (%)): 57%; Emax ([3]; dose-dependent decrease of maximum [^3H]DA accumulation, read-out: Emax of decrease of the Emax of [^3H]DA accumulation): 69 ± 1%; Emax ([3]; maximum level of [^3H]DA accumulation, 1 nM compound 55): 89 ± 4; Emax ([3]; maximum level of [^3H]DA accumulation, 4 nM compound 55): 71 ± 2; Emax ([3]; maximum level of [^3H]DA accumulation, 8 nM compound 55): 58 ± 2; Emax ([3]; maximum level of [^3H]DA accumulation, 25 nM compound 55): 43 ± 3; effect on the Emax of [^3H]DA accumulation, in words ([3]; time course of [^3H]DA uptake): decreased the Emax in a dose-dependent manner; efficacy of SERT uptake inhibition, in words ([4]; partial versus full inhibition): partial inhibitor; D-Amphetamine Emax (% ± SD) ([5]; Emax of D-amphetamine for [^3H]MPP^+ release in presence of 50 nM test compound): 103 ± 3%; effect on the d-amphetamine Emax value, in words ([5]; d-amphetamine-induced DAT-mediated [^3H]MPP^+ release, blocking concentration ˜25 times IC50 for DAT uptake inhibition): decreased; Apparent Kc [6]: -239 nM
c1ccc(C(CNc2nc(-c3ccc4ncnn4c3)nc3ccccc23)c2ccccc2)cc1 [compound 105, 2-([1,2,4]Triazolo[1,5-A]Pyridin-6-yl)-N-(2,2-Diphenylethyl)Quinazolin-4-Amine] | 9 nM | 63 ± 1% | 63% | 40 ± 5% | 40 ± 5 % I | 86 ± 55 nM | 86 ± 55 nM | 35 ± 3% | 13 ± 6 nM | – | Inactive | 8.8 ± 1.1 nM | D-Amphetamine Emax (% ± SD) ([5]; Emax of D-amphetamine for [^3H]MPP^+ release in presence of 250 nM test compound): 105 ± 4%
c1ccc(C(CNc2nc(-c3ccc4nccn4c3)nc3ccccc23)c2ccc[nH]2)cc1 (stereo not shown) [compound 117, 2-(Imidazo[1,2-A]Pyridin-6-yl)-N-(2-Phenyl-2-(1H-Pyrrol-2-yl)Ethyl)Quinazolin-4-Amine] | 6 nM | 64 ± 2% | 64% | 81 ± 2% | 81 ± 2 % I | 88 ± 15 nM | 88 ± 15 nM | 56 ± 2% | 18 ± 4 nM | 1600 nM | – | 6.1 ± 1 nM | D-Amphetamine Emax (% ± SD) ([5]; Emax of D-amphetamine for [^3H]MPP^+ release in presence of 150 nM test compound): 105 ± 4%; Kb ([5]; apparent Ke from shift of D-amphetamine-induced [^3H]MPP^+ release, compound at the concentration of column 1, read-out: Ke App): 1600 nM; Emax (DAT; 2 h, read-out: DAT Binding εmax): 42 ± 3%
